From US11452718B2 (AVALYN PHARMA INC., priority 2012, dated 2022)
Read-outs that look alike come from different tables or passages of the source.

What was measured:
[1] = Pharmacokinetics and tissue distribution (lung, plasma, heart, kidney) of co-solvent formulations, bolus intratracheal aerosol; type: in vivo, Sprague-Dawley rats; conditions: for concentration at 4 min / concentration at 0.1 h / concentration at 0.167 h / concentration at 0.333 h: Sprague-Dawley, rat, lung, other: intratracheal bolus aerosol (nebulizing catheter), 4 mg/kg, about 4 mg/kg pirfenidone IT bolus aerosol, read-out: Analyte in lung tissue, Mean; for concentration at 4 min: 0.0667 hr
Description: Selected formulations were prepared for pharmacokinetic analysis following aerosol delivery to rat lung. […] Formulations prepared for this study are outlined in Table 9. […] The sample was agitated until completely dissolved. […] Filtered samples were analyzed by HPLC.

[2] = Intravenous push of pirfenidone to a mouse: plasma and lung levels; type: in vivo; conditions: 40 mg/kg intravenous dose; blood about 40% of wet lung weight
Description: Exemplary Lung Tissue Delivery Assumptions: • 1. The total wet weight of the adult human lung is about 685 to 1,050 grams (for calculations, conservatively about […]); • 2. The adult human lung blood volume is about 450 mL; • 3. The tissue weight of the adult human lung is conservatively 1,050 grams wet weight minus 450 mL blood weight (assuming density of 1.0), equals 600 grams; • 4. […] The inhaled route of administration is dependent upon a respirable delivered dose (RDD). The RDD is the fraction of drug inhaled in aerosol particles less than 5 microns in diameter; • 7. RDD of typical dry powder, liquid nebulization or meter-dose inhalation devices ranges from 10% to 70%. Higher and lower efficiency devices with RDDs greater than 70% and less than 10% also exist; • 8. […] From the above observations and calculations, the lower limit of efficacy in lung tissue is 8 mcg/gram; and • 10.

[3] = cited from earlier work
[4] = Process temperature development study (60° C. dissolution, cooling to 25° C.); type: physicochemical; conditions: for Pirfenidone (mg/mL) >Re-crystal: after stepwise cooling to 25° C. and later re-crystallization
Description: Formulations were prepared as described in Table 11. […] The final volume of each formulation was 5 mL. […] Each sample was mixed thoroughly and agitated overnight at 60° C. Rapid cooling and step-wise cooling from 60° C. to 25° C. was performed. HPLC analysis was performed on samples taken after overnight incubation and after cooling to 25° C. Prior to HPLC analysis, formulations were filtered via syringe through a 0.45 μm PVDF filter.

[5] = Extended-duration intratracheal and oral pharmacokinetic study; type: in vivo, Wistar rats
Description: Previous intratracheal aerosol delivery (see Example 6) was performed as a single bolus instillation just above the first bifurcation of the lung. For in vivo efficacy studies, an attempt was made to mimic tidal inhaled breathing by splitting the dose into equal parts and administering as before, but over a 2 minute period. […] Doses were prepared in 0.45% sodium chloride solution and were administered as described in Table 21.
Plasma samples and entire lungs were taken at pre-dose, 2, 4, 6, 10, 30, 60 and 120 minutes post dosing. Materials were extracted and pirfenidone quantitated as mcg/mL plasma and μg/gram lung tissue.

[6] = EtOH 0, PG 8, PS80 0 % v/v, 92% phosphate buffer (5 mM), pH 6.6
[7] = EtOH 0, PG 8, PS80 0.04 % v/v, 92% phosphate buffer (5 mM), pH 6.7
[8] = EtOH 4, PG 0, PS80 0.04 % v/v, 96% phosphate buffer (5 mM), pH 6.6
[9] = EtOH 4, PG 8, PS80 0 % v/v, 88% phosphate buffer (5 mM), pH 6.7
[10] = EtOH 4, PG 8, PS80 0.04 % v/v, 88% phosphate buffer (5 mM), pH 6.7
[11] = intratracheal aerosol 2.5 mg/kg, extended-duration (2 minutes)
[12] = intratracheal aerosol 5 mg/kg, extended-duration (2 minutes)
[13] = intratracheal aerosol 10 mg/kg, extended-duration (2 minutes)

Work on `Cc1ccc(=O)n(-c2ccccc2)c1` [pirfenidone, 5-methyl-1-phenyl-2-(1H)-pyridone] yielded a concentration at 4 min ([1]; Group 1) of 10400 ng/g, a concentration at 0.1 h ([1]; Group 1) of 7530 ng/g and a concentration at 0.167 h ([1]; Group 1) of 5360 ng/g. For the same compound, the concentration at 0.333 h ([1]; Group 1) was 4150 ng/g, the concentration at 4 min ([1]; Group 2) was 8530 ng/g and the concentration at 0.1 h ([1]; Group 2) was 5980 ng/g. For the same compound, the concentration at 0.167 h ([1]; Group 2) was 5710 ng/g, the concentration at 0.333 h ([1]; Group 2) was 3790 ng/g and the concentration at 4 min ([1]; Group 3) was 17300 ng/g. For the same compound, the concentration at 0.1 h ([1]; Group 3) was 7340 ng/g, the concentration at 0.167 h ([1]; Group 3) was 6160 ng/g and the concentration at 4 min ([1]; Group 4) was 7770 ng/g. The concentration at 0.1 h ([1]; Group 4) was 7500 ng/g, the concentration at 0.167 h ([1]; Group 4) was 5230 ng/g and the concentration at 4 min ([1]; Group 5) was 10700 ng/g. For the same compound, the concentration at 0.1 h ([1]; Group 5) was 5830 ng/g, the concentration at 0.167 h ([1]; Group 5) was 8780 ng/g and the concentration at 4 min ([1]; Group 6) was 7930 ng/g. The concentration at 0.1 h ([1]; Group 6) was 6830 ng/g, the concentration at 0.167 h ([1]; Group 6) was 5170 ng/g and the adverse events ([1]; about 4 mg/kg intratracheal aerosol, co-solvent formulations) was “No adverse events were noted”. For the same compound, the “lung tissue level after subtracting blood contribution” value [2] was “about 8 mcg/g”, the “Lung Cmax” value ([3]; 40 mg/kg intravenous dose) was 30 mcg/gram wet tissue and the “plasma Cmax” value ([3]; 40 mg/kg intravenous dose) was “about 55 mcg/mL”. For the same compound, the “wet lung half-life, longer than the plasma half-life” value ([3]; intravenous) was “about 45%”, the “full dissolution on heating” value ([4]; 60° C.) was at least 50 mg/mL and the “Observations: dissolution” value [4, 6] was “Fully dissolved after overnight at 60 °C”. The “Observations: stable at 25° C. before re-crystallization” value (“Observations: stable” below) [4, 6] was “Stable at 25 °C for >4 hours before re-”, the “Pirfenidone (mg/mL) >60° C.” value [4, 6] was 54.6 mg/mL and the “Pirfenidone (mg/mL) >Re-crystal” value [4, 6] was 18.6 mg/mL. The “Observations: dissolution” value [4, 7] was “Fully dissolved after overnight at 60 °C”, the “Observations: stable” value [4, 7] was “Stable at 25 °C for >4 hours before re-” and the “Pirfenidone (mg/mL) >60° C.” value [4, 7] was 52.8 mg/mL. For the same compound, the “Pirfenidone (mg/mL) >Re-crystal” value [4, 7] was 22.3 mg/mL, the “Observations: dissolution” value [4, 8] was “Fully dissolved after overnight at 60 °C” and the “Observations: stable” value [4, 8] was “Stable at 25 °C for >4 hours before re-”. The “Pirfenidone (mg/mL) >60° C.” value [4, 8] was 50.7 mg/mL, the “Pirfenidone (mg/mL) >Re-crystal” value [4, 8] was 22.4 mg/mL and the “Observations: dissolution” value [4, 9] was “Fully dissolved after overnight at 60 °C”. For the same compound, the “Observations: stable” value [4, 9] was “Stable at 25 °C for >4 hours before re-”, the “Pirfenidone (mg/mL) >60° C.” value [4, 9] was 50.34 mg/mL and the “Pirfenidone (mg/mL) >Re-crystal” value [4, 9] was 27.6 mg/mL. The “Observations: dissolution” value [4, 10] was “Fully dissolved after overnight at 60 °C”, the “Observations: stable” value [4, 10] was “Stable at 25 °C for >4 hours before re-” and the “Pirfenidone (mg/mL) >60° C.” value [4, 10] was 51.8 mg/mL. The “Pirfenidone (mg/mL) >Re-crystal” value [4, 10] was 26.8 mg/mL, the “outcome of rapid cooling” value ([4]; rapid cooling to 25° C.) was “rapid recrystallization” and the “concentration staying in solution for several hours” value ([4]; slow step-wise cooling from 60° C. to 25° C.) was “about 50 mg/mL”. For the same compound, the adverse events ([5]; extended-duration intratracheal aerosol or oral gavage) was “No adverse events were noted”, the Lung Tissue AUC(0-2 hr) [5, 11] was 3.5 µg·h/g and the “Lung Tissue Cmax” value [5, 11] was 14.4 μg/gram. The Lung Tissue AUC(0-2 hr) [5, 12] was 6.6 µg·h/g, the “Lung Tissue Cmax” value [5, 12] was 27.9 μg/gram and the Lung Tissue AUC(0-2 hr) [5, 13] was 14.5 µg·h/g. The “Lung Tissue Cmax” value [5, 13] was 61.1 μg/gram, the Lung Tissue AUC(0-2 hr) ([5]; oral gavage 10 mg/kg) was 4.9 µg·h/g and the “Lung Tissue Cmax” value ([5]; oral gavage 10 mg/kg) was 3.5 μg/gram. For the same compound, the Lung Tissue AUC(0-2 hr) ([5]; oral gavage 30 mg/kg) was 13.5 µg·h/g, the “Lung Tissue Cmax” value ([5]; oral gavage 30 mg/kg) was 9.8 μg/gram and the Lung Tissue AUC(0-2 hr) ([5]; oral gavage 100 mg/kg) was 27.9 µg·h/g. For the same compound, the “Lung Tissue Cmax” value ([5]; oral gavage 100 mg/kg) was 33.6 μg/gram.
